Experimental data from PubChem BioAssay (NCI).
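1) Cells in 96-well plates. 2) Compound, 48 h, 5 concentrations. 3) Linear interpolation between surrounding doses. 4) Unreached endpoint = highest concentration. At the GI50, growth is halved. Definition used: TGI = concentration required for complete inhibition of growth.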

How the values were obtained:
Assay in all cases: NCI tumour cell line growth inhibition, 48 h
[1] = test system: NCI-H226 lung
[2] = test system: SK-MEL-28 melanoma
[3] = test system: SR leukemia
[4] = test system: OVCAR-4 ovarian
[5] = test system: COLO 205 colon
[6] = test system: TK-10 renal
[7] = test system: M14 melanoma
[8] = test system: T-47D breast
[9] = test system: RXF 393 renal
[10] = test system: PC-3 prostate

SMILES | TGI [1] | TGI [2] | TGI [3] | TGI [4] | TGI [5] | TGI [6] | TGI [7] | GI50 [1] | GI50 [8] | TGI [8] | GI50 [2] | GI50 [3] | GI50 [9] | TGI [9] | GI50 [4] | GI50 [5] | GI50 [6] | GI50 [7] | GI50 [10] | TGI [10]
COC(=O)NC(=O)c1cn(C2OC(CO)C(O)C2O)c(=O)[nH]c1=O (stereo not drawn) | > 100 µM | > 100 µM | > 100 µM | > 100 µM | > 100 µM | > 100 µM | > 100 µM | – | – | – | – | – | – | – | – | – | – | – | – | –
COC12C=C/C(=C(/C(=O)OCc3cncnc3)C(=O)CCCCCCCCC3(OC)C=C/C(=C(/C(=O)OCc4cncnc4)C(=O)CCCCCCCC1)O3)O2 | 1.65 µM | 1.65 µM | 6.61 µM | 2.81 µM | 2.25 µM | 1.93 µM | 1.61 µM | 0.656 µM | 0.232 µM | > 50 µM | 0.325 µM | 155 nM | 199 nM | 0.714 µM | 0.548 µM | 0.587 µM | 689 nM | 0.167 µM | – | –
CCOC(=O)c1nn2c(nc1=O)sc1ccc3ccccc3c12 | > 100 µM | > 100 µM | > 100 µM | > 100 µM | > 100 µM | > 100 µM | > 100 µM | – | – | – | – | – | – | > 100 µM | – | – | – | – | – | –
NC(=O)C(=O)N/N=C1\C(=O)N(c2ccc(Cl)cc2Cl)C(=O)C1C(=O)Nc1ccc(Cl)cc1Cl (stereo not drawn) | > 100 µM | > 100 µM | > 100 µM | – | > 100 µM | > 100 µM | > 100 µM | – | – | – | – | – | – | > 100 µM | – | – | – | – | – | –
O/N=C1/C(=C/c2ccc3c(c2)OCO3)CCCC1C(NO)c1ccc2c(c1)OCO2 (stereo not drawn) | – | 40.1 µM | – | 75.1 µM | 64.9 µM | 71.6 µM | 36.9 µM | – | – | – | – | – | – | 55 µM | – | – | – | – | – | –
CN1CCC2(CC1)ONC1=NCCN12 | 63.5 µM | > 100 µM | – | > 100 µM | > 100 µM | – | > 100 µM | 21.8 µM | 99.8 µM | > 100 µM | > 100 µM | – | – | – | > 100 µM | 31.1 µM | – | 47.9 µM | 26 µM | 66.5 µM
O=C(Nc1ccc([As](=O)(O)O)cc1)Nc1cccc(Cl)c1Cl | > 100 µM | > 100 µM | > 100 µM | > 100 µM | > 100 µM | > 100 µM | > 100 µM | – | – | – | – | – | – | 67.7 µM | – | – | – | – | – | > 100 µM
CC(=O)NC1C(OC[C@@H](CC(=O)N[C@@H](CC(=O)O)CC(=O)N[C@H](CC(=O)N[C@@H](CCCN)CC(=O)N[C@@H](CCCN)CC(=O)N[C@H](CC(N)=O)C(C)C)C(C)C)NC(=O)C[C@@H](N)C(C)C)OC(CO)C(O)C1O (stereo partly drawn) | > 100 µM | > 100 µM | – | > 100 µM | > 100 µM | > 100 µM | > 100 µM | > 100 µM | > 100 µM | > 100 µM | > 100 µM | – | > 100000 nM | > 100 µM | > 100 µM | > 100 µM | > 100000 nM | > 100 µM | > 100 µM | > 100 µM
O=C(O)CCN(CCCCN(CCC(=O)O)CCC(=O)O)CCC(=O)O | – | > 100 µM | – | > 100 µM | > 100 µM | > 100 µM | > 100 µM | – | – | – | – | – | – | – | – | – | – | – | – | –
CCCCCCCCCCCc1nnc(N)o1 | > 100 µM | > 100 µM | – | > 100 µM | > 100 µM | > 100 µM | > 100 µM | – | – | – | – | – | – | – | – | – | – | – | – | –
COc1ccc(/C=N/N=C(\N)NO)cc1O | > 100 µM | > 100 µM | – | > 100 µM | > 100 µM | – | – | – | – | – | – | – | – | > 100 µM | – | – | – | – | – | –
